Source: patent EP4745137A1 (Gluetacs Therapeutics (Shanghai) Co., Ltd., priority 2023, dated 2025)

Legend:
IKZF2 = target: T1, IKZF2 (Homo sapiens, UniProt Q96SW2+Q9UKS7); experiment: Western-blot assay of substrate protein degradation in hPBMCs, IKZF2; type: cell-based; details: 24 hours of compound treatment, compounds tested at 50 nM and 500 nM (concentration of the table not stated)
T1 construct: endogenous in cells; host or cells: hPBMCs (Milecell Biotechnologies)

IKZF1 = target: T2, IKZF1 (Homo sapiens, UniProt Q13422+Q96SW2); experiment: Western-blot assay of substrate protein degradation in hPBMCs, IKZF1; type: cell-based; details: 24 hours of compound treatment, compounds tested at 50 nM and 500 nM (concentration of the table not stated)
T2 construct: endogenous in cells; host or cells: hPBMCs (Milecell Biotechnologies)

CK1α = target: T3, CK1α (Homo sapiens, UniProt P48729+Q96SW2); experiment: Western-blot assay of substrate protein degradation in hPBMCs, CK1α; type: cell-based; details: 24 hours of compound treatment, compounds tested at 50 nM and 500 nM (concentration of the table not stated)
T3 construct: endogenous in cells; host or cells: hPBMCs (Milecell Biotechnologies)

[1] = target: T4, human Cereblon WT GST-tagged protein (Homo sapiens, UniProt Q96SW2); experiment: CRBN-binding affinity by HTRF (CEREBLON BINDING kit); details: HTRF inhibitory activity, CEREBLON BINDING kit; read-out: HTRF IC50
T4 construct: purchased CISBIO 64BDCRBNPEH

IKZF3 = target: T5, IKZF3 (Homo sapiens, UniProt Q96SW2+Q9UKT9); experiment: Western-blot assay of substrate protein degradation in hPBMCs, IKZF3; type: cell-based; details: 24 hours of compound treatment, compounds tested at 50 nM and 500 nM (concentration of the table not stated)
T5 construct: endogenous in cells; host or cells: hPBMCs (Milecell Biotechnologies)

WEE1 = target: T6, WEE1 (Homo sapiens, UniProt P30291+Q96SW2); experiment: Western-blot assay of substrate protein degradation in hPBMCs, WEE1; type: cell-based; details: 24 hours of compound treatment, compounds tested at 50 nM and 500 nM (concentration of the table not stated)
T6 construct: endogenous in cells; host or cells: hPBMCs (Milecell Biotechnologies)

GSPT1 = target: T7, GSPT1 (Homo sapiens, UniProt P15170+Q96SW2); experiment: Western-blot assay of substrate protein degradation in hPBMCs, GSPT1; type: cell-based; details: 24 hours of compound treatment, compounds tested at 50 nM and 500 nM (concentration of the table not stated)
T7 construct: endogenous in cells; host or cells: hPBMCs (Milecell Biotechnologies)
T7 sequence (P15170 whole entry): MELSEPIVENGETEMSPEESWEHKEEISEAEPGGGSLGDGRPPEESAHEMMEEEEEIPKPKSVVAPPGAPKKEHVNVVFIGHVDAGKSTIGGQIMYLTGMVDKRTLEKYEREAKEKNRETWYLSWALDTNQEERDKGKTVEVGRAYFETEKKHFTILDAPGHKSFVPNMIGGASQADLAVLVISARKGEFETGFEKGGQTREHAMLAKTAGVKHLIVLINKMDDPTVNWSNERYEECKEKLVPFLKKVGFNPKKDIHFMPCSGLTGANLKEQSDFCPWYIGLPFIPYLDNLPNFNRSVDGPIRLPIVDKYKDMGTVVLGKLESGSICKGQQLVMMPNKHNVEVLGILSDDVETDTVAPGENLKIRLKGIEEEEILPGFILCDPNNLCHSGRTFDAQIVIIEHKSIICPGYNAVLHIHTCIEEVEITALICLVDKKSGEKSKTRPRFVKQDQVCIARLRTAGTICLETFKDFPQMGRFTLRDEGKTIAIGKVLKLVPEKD
T7 sequence (Q96SW2 whole entry): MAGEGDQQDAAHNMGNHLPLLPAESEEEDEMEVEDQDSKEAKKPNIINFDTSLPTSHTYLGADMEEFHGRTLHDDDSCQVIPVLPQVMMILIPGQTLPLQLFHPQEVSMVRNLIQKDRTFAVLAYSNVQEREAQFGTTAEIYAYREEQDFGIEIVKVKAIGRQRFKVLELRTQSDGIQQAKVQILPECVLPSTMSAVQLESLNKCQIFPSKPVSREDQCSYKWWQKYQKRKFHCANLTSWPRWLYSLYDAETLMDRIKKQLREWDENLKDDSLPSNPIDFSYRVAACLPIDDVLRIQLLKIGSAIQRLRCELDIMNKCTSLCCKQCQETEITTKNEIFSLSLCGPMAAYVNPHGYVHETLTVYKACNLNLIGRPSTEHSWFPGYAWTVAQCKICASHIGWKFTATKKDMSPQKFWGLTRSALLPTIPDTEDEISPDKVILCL
T7 sequence (Q16531 whole entry partner): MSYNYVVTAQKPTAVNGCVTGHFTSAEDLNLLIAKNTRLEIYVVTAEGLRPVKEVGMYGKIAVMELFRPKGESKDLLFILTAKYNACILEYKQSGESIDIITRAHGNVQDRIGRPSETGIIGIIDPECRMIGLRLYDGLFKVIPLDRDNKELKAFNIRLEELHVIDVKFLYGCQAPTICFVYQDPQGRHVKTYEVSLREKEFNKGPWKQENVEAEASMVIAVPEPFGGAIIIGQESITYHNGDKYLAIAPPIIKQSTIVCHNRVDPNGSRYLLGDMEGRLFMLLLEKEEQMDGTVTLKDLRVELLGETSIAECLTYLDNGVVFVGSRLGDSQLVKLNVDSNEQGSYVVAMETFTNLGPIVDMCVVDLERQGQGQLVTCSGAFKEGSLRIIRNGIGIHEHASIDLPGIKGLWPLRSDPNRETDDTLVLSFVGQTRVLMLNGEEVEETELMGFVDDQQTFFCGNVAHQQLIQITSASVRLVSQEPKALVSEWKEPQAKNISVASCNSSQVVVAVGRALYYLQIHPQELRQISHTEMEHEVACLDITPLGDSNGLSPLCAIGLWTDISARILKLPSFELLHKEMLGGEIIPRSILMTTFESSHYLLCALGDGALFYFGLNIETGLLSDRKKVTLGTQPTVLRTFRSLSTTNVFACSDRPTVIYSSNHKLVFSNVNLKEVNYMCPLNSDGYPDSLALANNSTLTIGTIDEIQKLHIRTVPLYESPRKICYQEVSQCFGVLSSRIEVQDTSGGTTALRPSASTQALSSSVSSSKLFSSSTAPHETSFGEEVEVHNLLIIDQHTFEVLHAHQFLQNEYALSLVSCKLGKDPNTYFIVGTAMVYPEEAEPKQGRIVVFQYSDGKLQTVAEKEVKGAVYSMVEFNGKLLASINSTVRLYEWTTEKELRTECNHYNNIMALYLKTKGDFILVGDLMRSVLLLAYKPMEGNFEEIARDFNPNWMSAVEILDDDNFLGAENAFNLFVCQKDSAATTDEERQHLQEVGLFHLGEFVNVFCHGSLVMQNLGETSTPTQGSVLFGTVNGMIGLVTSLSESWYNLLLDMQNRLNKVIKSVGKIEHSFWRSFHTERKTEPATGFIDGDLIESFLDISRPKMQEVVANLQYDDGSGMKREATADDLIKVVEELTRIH

T4 sequence (Q96SW2 whole entry): as the sequence (Q96SW2 whole entry) above
T2 sequence (Q13422 whole entry): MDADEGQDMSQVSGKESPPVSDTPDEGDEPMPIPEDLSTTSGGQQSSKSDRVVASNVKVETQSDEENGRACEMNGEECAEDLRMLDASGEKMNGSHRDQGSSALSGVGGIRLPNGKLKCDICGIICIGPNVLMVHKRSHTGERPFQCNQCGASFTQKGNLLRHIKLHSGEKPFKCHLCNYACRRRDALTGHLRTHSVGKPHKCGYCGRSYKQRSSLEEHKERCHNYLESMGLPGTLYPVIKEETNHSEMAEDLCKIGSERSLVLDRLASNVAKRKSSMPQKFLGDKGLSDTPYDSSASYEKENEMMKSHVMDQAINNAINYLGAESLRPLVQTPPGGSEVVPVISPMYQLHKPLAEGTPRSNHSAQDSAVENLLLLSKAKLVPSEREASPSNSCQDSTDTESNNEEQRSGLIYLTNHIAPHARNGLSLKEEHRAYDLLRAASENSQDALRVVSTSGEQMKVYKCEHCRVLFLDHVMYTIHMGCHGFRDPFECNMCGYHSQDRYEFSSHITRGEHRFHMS
T2 sequence (Q96SW2 whole entry): as the sequence (Q96SW2 whole entry) above
T2 sequence (Q16531 whole entry partner): as the sequence (Q16531 whole entry partner) above
T6 sequence (P30291 whole entry): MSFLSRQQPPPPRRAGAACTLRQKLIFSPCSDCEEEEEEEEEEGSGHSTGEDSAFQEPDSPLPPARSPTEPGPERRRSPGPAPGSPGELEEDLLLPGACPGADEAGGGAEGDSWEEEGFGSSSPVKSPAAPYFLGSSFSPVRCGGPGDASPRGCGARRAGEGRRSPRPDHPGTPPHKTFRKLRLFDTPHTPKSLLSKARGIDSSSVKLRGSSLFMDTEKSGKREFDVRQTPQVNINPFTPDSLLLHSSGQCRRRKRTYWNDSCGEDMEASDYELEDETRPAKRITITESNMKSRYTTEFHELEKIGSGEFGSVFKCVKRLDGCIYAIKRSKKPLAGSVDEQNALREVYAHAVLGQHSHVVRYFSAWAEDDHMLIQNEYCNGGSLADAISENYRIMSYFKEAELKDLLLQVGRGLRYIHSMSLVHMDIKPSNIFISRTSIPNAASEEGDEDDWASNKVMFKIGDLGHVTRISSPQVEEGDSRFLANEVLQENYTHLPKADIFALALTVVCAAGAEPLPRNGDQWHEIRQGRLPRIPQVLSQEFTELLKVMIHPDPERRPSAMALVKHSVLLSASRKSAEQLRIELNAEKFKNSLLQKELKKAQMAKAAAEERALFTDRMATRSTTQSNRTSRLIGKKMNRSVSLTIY
T6 sequence (Q96SW2 whole entry): as the sequence (Q96SW2 whole entry) above
T6 sequence (Q16531 whole entry partner): as the sequence (Q16531 whole entry partner) above
T3 sequence (P48729 whole entry): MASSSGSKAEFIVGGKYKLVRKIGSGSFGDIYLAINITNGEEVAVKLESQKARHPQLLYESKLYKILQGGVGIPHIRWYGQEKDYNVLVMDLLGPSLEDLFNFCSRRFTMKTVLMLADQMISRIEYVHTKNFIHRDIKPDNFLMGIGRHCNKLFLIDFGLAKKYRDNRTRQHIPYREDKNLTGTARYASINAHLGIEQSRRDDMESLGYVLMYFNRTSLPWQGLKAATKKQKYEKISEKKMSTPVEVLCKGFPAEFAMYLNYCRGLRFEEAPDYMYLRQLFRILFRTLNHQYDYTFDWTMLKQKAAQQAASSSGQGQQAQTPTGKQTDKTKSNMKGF
T3 sequence (Q96SW2 whole entry): as the sequence (Q96SW2 whole entry) above
T3 sequence (Q16531 whole entry partner): as the sequence (Q16531 whole entry partner) above
T1 sequence (Q9UKS7 whole entry): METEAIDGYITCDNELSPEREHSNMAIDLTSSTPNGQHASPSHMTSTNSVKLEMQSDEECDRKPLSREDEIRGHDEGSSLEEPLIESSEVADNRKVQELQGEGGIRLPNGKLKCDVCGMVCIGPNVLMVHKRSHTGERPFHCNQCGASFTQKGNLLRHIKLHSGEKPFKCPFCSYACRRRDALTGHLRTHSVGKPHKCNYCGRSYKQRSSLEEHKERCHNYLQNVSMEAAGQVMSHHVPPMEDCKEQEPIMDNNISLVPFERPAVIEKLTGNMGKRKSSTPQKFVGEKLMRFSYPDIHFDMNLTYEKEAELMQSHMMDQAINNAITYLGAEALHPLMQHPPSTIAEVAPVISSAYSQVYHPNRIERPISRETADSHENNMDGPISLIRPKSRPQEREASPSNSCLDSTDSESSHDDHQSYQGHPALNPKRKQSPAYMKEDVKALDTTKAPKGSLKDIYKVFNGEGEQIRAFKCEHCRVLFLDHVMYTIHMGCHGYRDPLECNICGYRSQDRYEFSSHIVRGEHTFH
T1 sequence (Q96SW2 whole entry): as the sequence (Q96SW2 whole entry) above
T1 sequence (Q16531 whole entry partner): as the sequence (Q16531 whole entry partner) above

| IC50 [1] [nM] | SMILES | IKZF2 substrate protein remaining % (IKZF2) | IKZF 1 substrate protein remaining % (IKZF1) | CK1a substrate protein remaining % (CK1α) | IKZF3 substrate protein remaining % (IKZF3) | Weel substrate protein remaining % (WEE1) | GSPT1 substrate protein remaining % (GSPT1) |
| --- | --- | --- | --- | --- | --- | --- | --- |
| 1000 to 1500 | O=C1CCC(N2Cc3cc(CN4CCN(c5ccncc5F)CC4)ccc3C2=O)C(=O)N1 (stereo not shown) [GT-04581, 3-(5-((4-(3-fluoropyridin-4-yl)piperazin-1-yl)methyl)-1-oxoisoindolin-2-yl)piperidine-2,6-dione] | A (0% ≤ substrate protein remaining % ≤ 80%) | B (80%< substrate protein remaining %≤ 100%) | B (80%< substrate protein remaining %≤ 100%) | A (0% ≤ substrate protein remaining % ≤ 80%) | B (80%< substrate protein remaining %≤ 100%) | B (80%< substrate protein remaining %≤ 100%) |
| 1000 to 1500 | O=C1CCC(N2Cc3cc(CN4CCC(c5ccoc5)CC4)ccc3C2=O)C(=O)N1 (stereo not shown) [GT-04590, 3-(5-((4-(furan-3-yl)piperidin-1-yl)methyl)-1-oxoisoindolin-2-yl)piperidine-2,6-dione] | A (0% ≤ substrate protein remaining % ≤ 80%) | B (80%< substrate protein remaining %≤ 100%) | B (80%< substrate protein remaining %≤ 100%) | B (80%< substrate protein remaining %≤ 100%) | B (80%< substrate protein remaining %≤ 100%) | A (0% ≤ substrate protein remaining % ≤ 80%) |
| 1500 to 1900 | O=C1CCC(N2Cc3cc(CN4CCCC(C5CCNCC5)C4)ccc3C2=O)C(=O)N1 (stereo not shown) [GT-04591, 3-(5-([3,4'-bipiperidin]-1-ylmethyl)-1-oxoisoindolin-2-yl)piperidine-2,6-dione] | B (80%< substrate protein remaining %≤ 100%) | B (80%< substrate protein remaining %≤ 100%) | A (0% ≤ substrate protein remaining % ≤ 80%) | B (80%< substrate protein remaining %≤ 100%) | B (80%< substrate protein remaining %≤ 100%) | A (0% ≤ substrate protein remaining % ≤ 80%) |
| 500 to 1000 | O=C1CCC(N2Cc3cc(CN4CCN(c5c(Cl)cncc5Br)CC4)ccc3C2=O)C(=O)N1 (stereo not shown) [GT-04600, 3-(5-((4-(3-bromo-5-chloropyridin-4-yl)piperazin-1-yl)methyl)-1-oxoisoindolin-2-yl)piperidine-2,6-dione] | A (0% ≤ substrate protein remaining % ≤ 80%) | A (0% ≤ substrate protein remaining % ≤ 80%) | B (80%< substrate protein remaining %≤ 100%) | A (0% ≤ substrate protein remaining % ≤ 80%) | A (0% ≤ substrate protein remaining % ≤ 80%) | A (0% ≤ substrate protein remaining % ≤ 80%) |
| 500 to 1000 | O=C1CCC(N2Cc3cc(CN4CCN(c5c(F)cncc5Cl)CC4)ccc3C2=O)C(=O)N1 (stereo not shown) [GT-04611, 3-(5-((4-(3-chloro-5-fluoropyridin-4-yl)piperazin-1-yl)methyl)-1-oxoisoindolin-2-yl)piperidine-2,6-dione] | B (80%< substrate protein remaining %≤ 100%) | B (80%< substrate protein remaining %≤ 100%) | B (80%< substrate protein remaining %≤ 100%) | B (80%< substrate protein remaining %≤ 100%) | A (0% ≤ substrate protein remaining % ≤ 80%) | A (0% ≤ substrate protein remaining % ≤ 80%) |
| 500 to 1000 | O=C1CCC(N2Cc3cc(CN4CCN(c5ccnc(Cl)c5F)CC4)ccc3C2=O)C(=O)N1 (stereo not shown) [GT-04612, 3-(5-((4-(2-chloro-3-fluoropyridin-4-yl)piperazin-1-yl)methyl)-1-oxoisoindolin-2-yl)piperidine-2,6-dione] | B (80%< substrate protein remaining %≤ 100%) | B (80%< substrate protein remaining %≤ 100%) | B (80%< substrate protein remaining %≤ 100%) | B (80%< substrate protein remaining %≤ 100%) | A (0% ≤ substrate protein remaining % ≤ 80%) | A (0% ≤ substrate protein remaining % ≤ 80%) |
| 1000 to 1500 | O=C1CCC(N2Cc3cc(CN4CCN(c5c(Cl)cccc5Cl)CC4)ccc3C2=O)C(=O)N1 (stereo not shown) [GT-04613, 3-(5-((4-(2,6-dichlorophenyl)piperazin-1-yl)methyl)-1-oxoisoindolin-2-yl)piperidine-2,6-dione] | B (80%< substrate protein remaining %≤ 100%) | B (80%< substrate protein remaining %≤ 100%) | B (80%< substrate protein remaining %≤ 100%) | B (80%< substrate protein remaining %≤ 100%) | A (0% ≤ substrate protein remaining % ≤ 80%) | A (0% ≤ substrate protein remaining % ≤ 80%) |
| < 500 | O=C1CCC(N2Cc3cc(CN4CCN(c5ccnc(Cl)c5Br)CC4)ccc3C2=O)C(=O)N1 (stereo not shown) [GT-04616, 3-(5-((4-(3-bromo-2-chloropyridin-4-yl)piperazin-1-yl)methyl)-1-oxoisoindolin-2-yl)piperidine-2,6-dione] | B (80%< substrate protein remaining %≤ 100%) | B (80%< substrate protein remaining %≤ 100%) | B (80%< substrate protein remaining %≤ 100%) | B (80%< substrate protein remaining %≤ 100%) | B (80%< substrate protein remaining %≤ 100%) | A (0% ≤ substrate protein remaining % ≤ 80%) |
| < 500 | O=C1CCC(N2Cc3cc(CN4CCC(=C5CCOc6cc(F)ccc65)CC4)ccc3C2=O)C(=O)N1 (stereo not shown) [GT-04649, 3-(5-((4-(7-fluorochroman-4-ylidene)piperidin-1-yl)methyl)-1-oxoisoindolin-2-yl)piperidine-2,6-dione] | A (0% ≤ substrate protein remaining % ≤ 80%) | A (0% ≤ substrate protein remaining % ≤ 80%) | B (80%< substrate protein remaining %≤ 100%) | A (0% ≤ substrate protein remaining % ≤ 80%) | B (80%< substrate protein remaining %≤ 100%) | A (0% ≤ substrate protein remaining % ≤ 80%) |
| < 500 | O=C1CCC(N2Cc3cc(CN4CCC(c5cccc6cnccc56)CC4)ccc3C2=O)C(=O)N1 (stereo not shown) [GT-04665, 3-(5-((4-(isoquinolin-5-yl)piperidin-1-yl)methyl)-1-oxoisoindolin-2-yl)piperidine-2,6-dione] | A (0% ≤ substrate protein remaining % ≤ 80%) | A (0% ≤ substrate protein remaining % ≤ 80%) | A (0% ≤ substrate protein remaining % ≤ 80%) | A (0% ≤ substrate protein remaining % ≤ 80%) | A (0% ≤ substrate protein remaining % ≤ 80%) | A (0% ≤ substrate protein remaining % ≤ 80%) |
| 500 to 1000 | O=C1CCC(N2Cc3cc(CN4CCN(c5noc6cc(F)ccc56)CC4)ccc3C2=O)C(=O)N1 (stereo not shown) [GT-04667, 3-(5-((4-(6-fluorobenzo[d]isoxazol-3-yl)piperazin-1-yl)methyl)-1-oxoisoindolin-2-yl)piperidine-2,6-dione] | A (0% ≤ substrate protein remaining % ≤ 80%) | A (0% ≤ substrate protein remaining % ≤ 80%) | B (80%< substrate protein remaining %≤ 100%) | A (0% ≤ substrate protein remaining % ≤ 80%) | A (0% ≤ substrate protein remaining % ≤ 80%) | A (0% ≤ substrate protein remaining % ≤ 80%) |
| < 500 | O=C1CCC(N2Cc3cc(CN4CC(N5CCc6cc(F)ccc65)C4)ccc3C2=O)C(=O)N1 (stereo not shown) [GT-04677, 3-(5-((3-(5-fluoroindolin-1-yl)azetidin-1-yl)methyl)-1-oxoisoindolin-2-yl)piperidine-2,6-dione] | A (0% ≤ substrate protein remaining % ≤ 80%) | A (0% ≤ substrate protein remaining % ≤ 80%) | B (80%< substrate protein remaining %≤ 100%) | A (0% ≤ substrate protein remaining % ≤ 80%) | A (0% ≤ substrate protein remaining % ≤ 80%) | A (0% ≤ substrate protein remaining % ≤ 80%) |

| SMILES | IC50 [1] [nM] | IKZF2 substrate protein remaining % (IKZF2) | IKZF 1 substrate protein remaining % (IKZF1) | CK1a substrate protein remaining % (CK1α) | IKZF3 substrate protein remaining % (IKZF3) | Weel substrate protein remaining % (WEE1) | GSPT1 substrate protein remaining % (GSPT1) |
| --- | --- | --- | --- | --- | --- | --- | --- |
| O=C1CCC(N2Cc3cc(CN4CCC(c5ccnc6cc(F)ccc56)CC4)ccc3C2=O)C(=O)N1 (stereo not shown) [GT-04648, 3-(5-((4-(7-fluoroquinolin-4-yl)piperidin-1-yl)methyl)-1-oxoisoindolin-2-yl)piperidine-2,6-dione] | 500 to 1000 | A (0% ≤ substrate protein remaining % ≤ 80%) | A (0% ≤ substrate protein remaining % ≤ 80%) | B (80%< substrate protein remaining %≤ 100%) | A (0% ≤ substrate protein remaining % ≤ 80%) | B (80%< substrate protein remaining %≤ 100%) | A (0% ≤ substrate protein remaining % ≤ 80%) |
